Results as given in patent publication US10100076B2, “Modified nucleosides for the treatment of viral infections and abnormal cellular proliferation” (priority 2000, dated 2018).

Test system: HCV replicon
Test: HCV replicon system in Huh7 cells, replicon RNA by Q-RT-PCR (HCV ΔCt, ΔΔCt)
Assay type: cell-based, hepatitis C virus
Conditions: Table 24; HCV RNA ΔCt minus rRNA ΔCt
Also: test concentration or dose not given here.

SMILES	Ave. ΔΔCt
Nc1nc(=O)n(C2CSC(CO)O2)cc1F [β-L-JB]	−0.90
N=c1nc(N)ccn1[C@@H]1O[C@H](CO)[C@@H](O)[C@@H]1O [β-D-BL]	0.35
OC[C@@H]1C[C@H](F)[C@H](n2cnc3c(Cl)ncnc32)O1 [β-D-DH]	1.21
Nc1nc(=O)n([C@@H]2C=C(CO)[C@@H](O)[C@H]2O)cc1F [β-D-HB]	1.30
O=c1[nH]c(=O)n([C@@H]2O[C@H](CO)[C@@H](O)[C@H]2O)cc1F [β-D-CC]	0.21
N=c1ccn2c(n1)O[C@H]1[C@H](O)[C@@H](CO)O[C@H]12 [β-D-ME]	1.64
CC1(CO)CO[C@@H](n2cnc3c(N)nc(F)nc32)C1 (stereo partly drawn) [β-D-VA]	1.39
[2H]c1c(N)nc(=O)n([C@@H]2O[C@H](CO)[C@@H](O)[C@@H]2O)c1[2H] [β-D-AO]	1.97
Nc1ccn([C@@H]2O[C@H](CO)[C@H](Br)[C@H]2O)c(=O)n1 [β-D-AI]	0.48
Nc1ncnc2c1ncn2[C@@H]1O[C@H](CO)[C@@H](F)[C@H]1O [β-D-DD]	1.61
Nc1nc(=O)n([C@@H]2O[C@H](CO)[C@@H](O)[C@@H]2O)cc1F [β-D-AP]	0.05
O=c1nc(NO)c(F)cn1[C@@H]1O[C@H](CO)[C@@H](O)[C@H]1O [β-D-BT]	1.24
CS(=O)(=O)OC1C(CO)OC(n2ccc(N)nc2=O)C1O [β-D-AK]	1.25
CC(=O)O[C@H]1[C@@H]2Oc3nc(=N)ccn3[C@@H]2O[C@@H]1CO [β-D-MD]	1.62
Nc1nc(F)nc2c1ncn2[C@@H]1C=C[C@H](CO)O1 [β-L-FC]	0.42
OC[C@@H]1C=C(F)[C@H](n2cnc3c(Cl)ncnc32)O1 [β-D-FA]	1.44
CC(=O)Nc1ccn([C@@H]2O[C@H](CO)[C@@H](O)[C@@H]2O)c(=O)n1 [β-D-BO]	1.57

Same assay, conditions: Table 24; HCV replicon in Huh7 cells; average of n

SMILES	Ave. HCV RNA ΔCt
Nc1nc(=O)n(C2CSC(CO)O2)cc1F [β-L-JB]	3.65
N=c1nc(N)ccn1[C@@H]1O[C@H](CO)[C@@H](O)[C@@H]1O [β-D-BL]	2.28
OC[C@@H]1C[C@H](F)[C@H](n2cnc3c(Cl)ncnc32)O1 [β-D-DH]	4.13
Nc1nc(=O)n([C@@H]2C=C(CO)[C@@H](O)[C@H]2O)cc1F [β-D-HB]	2.94
O=c1[nH]c(=O)n([C@@H]2O[C@H](CO)[C@@H](O)[C@H]2O)cc1F [β-D-CC]	5.04
N=c1ccn2c(n1)O[C@H]1[C@H](O)[C@@H](CO)O[C@H]12 [β-D-ME]	2.89
CC1(CO)CO[C@@H](n2cnc3c(N)nc(F)nc32)C1 (stereo partly drawn) [β-D-VA]	5.56
[2H]c1c(N)nc(=O)n([C@@H]2O[C@H](CO)[C@@H](O)[C@@H]2O)c1[2H] [β-D-AO]	4.10
Nc1ccn([C@@H]2O[C@H](CO)[C@H](Br)[C@H]2O)c(=O)n1 [β-D-AI]	2.93
Nc1ncnc2c1ncn2[C@@H]1O[C@H](CO)[C@@H](F)[C@H]1O [β-D-DD]	6.60
Nc1nc(=O)n([C@@H]2O[C@H](CO)[C@@H](O)[C@@H]2O)cc1F [β-D-AP]	3.27
O=c1nc(NO)c(F)cn1[C@@H]1O[C@H](CO)[C@@H](O)[C@H]1O [β-D-BT]	4.83
CS(=O)(=O)OC1C(CO)OC(n2ccc(N)nc2=O)C1O [β-D-AK]	3.73
CC(=O)O[C@H]1[C@@H]2Oc3nc(=N)ccn3[C@@H]2O[C@@H]1CO [β-D-MD]	3.57
Nc1nc(F)nc2c1ncn2[C@@H]1C=C[C@H](CO)O1 [β-L-FC]	5.55
OC[C@@H]1C=C(F)[C@H](n2cnc3c(Cl)ncnc32)O1 [β-D-FA]	3.80
CC(=O)Nc1ccn([C@@H]2O[C@H](CO)[C@@H](O)[C@@H]2O)c(=O)n1 [β-D-BO]	4.52

Same assay, conditions: Table 25; HCV RNA ΔCt minus rDNA ΔCt

SMILES	average ΔΔCt
Nc1nc(=O)n(C2CSC(CO)O2)cc1F [β-L-JB]	2.45
N=c1nc(N)ccn1[C@@H]1O[C@H](CO)[C@@H](O)[C@@H]1O [β-D-BL]	0.65
OC[C@@H]1C[C@H](F)[C@H](n2cnc3c(Cl)ncnc32)O1 [β-D-DH]	3.25
Nc1nc(=O)n([C@@H]2C=C(CO)[C@@H](O)[C@H]2O)cc1F [β-D-HB]	0.40
O=c1[nH]c(=O)n([C@@H]2O[C@H](CO)[C@@H](O)[C@H]2O)cc1F [β-D-CC]	3.66
N=c1ccn2c(n1)O[C@H]1[C@H](O)[C@@H](CO)O[C@H]12 [β-D-ME]	1.36
[2H]c1c(N)nc(=O)n([C@@H]2O[C@H](CO)[C@@H](O)[C@@H]2O)c1[2H] [β-D-AO]	2.26
Nc1ccn([C@@H]2O[C@H](CO)[C@H](Br)[C@H]2O)c(=O)n1 [β-D-AI]	4.55
Nc1ncnc2c1ncn2[C@@H]1O[C@H](CO)[C@@H](F)[C@H]1O [β-D-DD]	3.30
Nc1nc(=O)n([C@@H]2O[C@H](CO)[C@@H](O)[C@@H]2O)cc1F [β-D-AP]	1.02
O=c1nc(NO)c(F)cn1[C@@H]1O[C@H](CO)[C@@H](O)[C@H]1O [β-D-BT]	3.39
CS(=O)(=O)OC1C(CO)OC(n2ccc(N)nc2=O)C1O [β-D-AK]	0.79
CC(=O)O[C@H]1[C@@H]2Oc3nc(=N)ccn3[C@@H]2O[C@@H]1CO [β-D-MD]	1.46
Nc1nc(F)nc2c1ncn2[C@@H]1C=C[C@H](CO)O1 [β-L-FC]	3.41
OC[C@@H]1C=C(F)[C@H](n2cnc3c(Cl)ncnc32)O1 [β-D-FA]	0.78

Same assay, conditions: Table 25; HCV replicon in Huh7 cells; average of N

SMILES	Ave. HCV RNA ΔCt
Nc1nc(=O)n(C2CSC(CO)O2)cc1F [β-L-JB]	3.65
N=c1nc(N)ccn1[C@@H]1O[C@H](CO)[C@@H](O)[C@@H]1O [β-D-BL]	2.28
OC[C@@H]1C[C@H](F)[C@H](n2cnc3c(Cl)ncnc32)O1 [β-D-DH]	4.14
Nc1nc(=O)n([C@@H]2C=C(CO)[C@@H](O)[C@H]2O)cc1F [β-D-HB]	1.90
O=c1[nH]c(=O)n([C@@H]2O[C@H](CO)[C@@H](O)[C@H]2O)cc1F [β-D-CC]	5.84
N=c1ccn2c(n1)O[C@H]1[C@H](O)[C@@H](CO)O[C@H]12 [β-D-ME]	2.89
[2H]c1c(N)nc(=O)n([C@@H]2O[C@H](CO)[C@@H](O)[C@@H]2O)c1[2H] [β-D-AO]	4.10
Nc1ccn([C@@H]2O[C@H](CO)[C@H](Br)[C@H]2O)c(=O)n1 [β-D-AI]	3.76
Nc1ncnc2c1ncn2[C@@H]1O[C@H](CO)[C@@H](F)[C@H]1O [β-D-DD]	6.60
Nc1nc(=O)n([C@@H]2O[C@H](CO)[C@@H](O)[C@@H]2O)cc1F [β-D-AP]	3.27
O=c1nc(NO)c(F)cn1[C@@H]1O[C@H](CO)[C@@H](O)[C@H]1O [β-D-BT]	4.44
CS(=O)(=O)OC1C(CO)OC(n2ccc(N)nc2=O)C1O [β-D-AK]	3.51
CC(=O)O[C@H]1[C@@H]2Oc3nc(=N)ccn3[C@@H]2O[C@@H]1CO [β-D-MD]	3.50
Nc1nc(F)nc2c1ncn2[C@@H]1C=C[C@H](CO)O1 [β-L-FC]	4.41
OC[C@@H]1C=C(F)[C@H](n2cnc3c(Cl)ncnc32)O1 [β-D-FA]	3.80

Test system: rRNA (host RNA polymerase I product)
Test: rRNA ΔCt in Huh7 replicon cells (effect on host RNA polymerases)
Conditions: Table 24, average of n
From the text: In a typical setting, a compound might reduce both the host RNA polymerase activity and the replicon-encoded polymerase activity. Therefore, quantification of rRNA (or any other host RNA polymerase I product) or beta-actin mRNA (or any other host RNA polymerase II) and comparison with RNA levels of the no-drug control is a relative measurement of the effect of the test compound on host RNA polymerases.
With the availability of both the HCV ΔCt data and the rRNA ΔCt, a specificity parameter can be introduced. This parameter is obtained by subtracting both ΔCt values from each other.

SMILES	Ave. rRNA ΔCt
Nc1nc(=O)n(C2CSC(CO)O2)cc1F [β-L-JB]	4.55
N=c1nc(N)ccn1[C@@H]1O[C@H](CO)[C@@H](O)[C@@H]1O [β-D-BL]	1.93
OC[C@@H]1C[C@H](F)[C@H](n2cnc3c(Cl)ncnc32)O1 [β-D-DH]	2.91
Nc1nc(=O)n([C@@H]2C=C(CO)[C@@H](O)[C@H]2O)cc1F [β-D-HB]	1.65
O=c1[nH]c(=O)n([C@@H]2O[C@H](CO)[C@@H](O)[C@H]2O)cc1F [β-D-CC]	4.82
N=c1ccn2c(n1)O[C@H]1[C@H](O)[C@@H](CO)O[C@H]12 [β-D-ME]	1.25
CC1(CO)CO[C@@H](n2cnc3c(N)nc(F)nc32)C1 (stereo partly drawn) [β-D-VA]	4.17
[2H]c1c(N)nc(=O)n([C@@H]2O[C@H](CO)[C@@H](O)[C@@H]2O)c1[2H] [β-D-AO]	2.13
Nc1ccn([C@@H]2O[C@H](CO)[C@H](Br)[C@H]2O)c(=O)n1 [β-D-AI]	2.43
Nc1ncnc2c1ncn2[C@@H]1O[C@H](CO)[C@@H](F)[C@H]1O [β-D-DD]	4.99
Nc1nc(=O)n([C@@H]2O[C@H](CO)[C@@H](O)[C@@H]2O)cc1F [β-D-AP]	3.23
O=c1nc(NO)c(F)cn1[C@@H]1O[C@H](CO)[C@@H](O)[C@H]1O [β-D-BT]	3.59
CS(=O)(=O)OC1C(CO)OC(n2ccc(N)nc2=O)C1O [β-D-AK]	2.48
CC(=O)O[C@H]1[C@@H]2Oc3nc(=N)ccn3[C@@H]2O[C@@H]1CO [β-D-MD]	1.95
Nc1nc(F)nc2c1ncn2[C@@H]1C=C[C@H](CO)O1 [β-L-FC]	5.13
OC[C@@H]1C=C(F)[C@H](n2cnc3c(Cl)ncnc32)O1 [β-D-FA]	3.58
CC(=O)Nc1ccn([C@@H]2O[C@H](CO)[C@@H](O)[C@@H]2O)c(=O)n1 [β-D-BO]	2.95

Test system: rDNA (host DNA)
Test: rDNA ΔCt in Huh7 replicon cells (effect on cellular DNA polymerases)
Conditions: Table 25, average of N
From the text: In another typical setting, a compound might reduce the host RNA polymerase activity, but not the host DNA polymerase activity. Therefore, quantification of rDNA or beta-actin DNA (or any other host DNA fragment) and comparison with DNA levels of the no-drug control is a relative measurement of the inhibitory effect of the test compound on cellular DNA polymerases.
With the availability of both the HCV ΔCt data and the rDNA ΔCt, a specificity parameter can be introduced. This parameter is obtained by subtracting both ΔCt values from each other.

SMILES	Ave. rDNA ΔCt
Nc1nc(=O)n(C2CSC(CO)O2)cc1F [β-L-JB]	1.20
N=c1nc(N)ccn1[C@@H]1O[C@H](CO)[C@@H](O)[C@@H]1O [β-D-BL]	1.62
OC[C@@H]1C[C@H](F)[C@H](n2cnc3c(Cl)ncnc32)O1 [β-D-DH]	0.89
Nc1nc(=O)n([C@@H]2C=C(CO)[C@@H](O)[C@H]2O)cc1F [β-D-HB]	1.19
O=c1[nH]c(=O)n([C@@H]2O[C@H](CO)[C@@H](O)[C@H]2O)cc1F [β-D-CC]	2.17
N=c1ccn2c(n1)O[C@H]1[C@H](O)[C@@H](CO)O[C@H]12 [β-D-ME]	1.53
[2H]c1c(N)nc(=O)n([C@@H]2O[C@H](CO)[C@@H](O)[C@@H]2O)c1[2H] [β-D-AO]	1.84
Nc1ccn([C@@H]2O[C@H](CO)[C@H](Br)[C@H]2O)c(=O)n1 [β-D-AI]	−0.96
Nc1ncnc2c1ncn2[C@@H]1O[C@H](CO)[C@@H](F)[C@H]1O [β-D-DD]	3.30
Nc1nc(=O)n([C@@H]2O[C@H](CO)[C@@H](O)[C@@H]2O)cc1F [β-D-AP]	2.26
O=c1nc(NO)c(F)cn1[C@@H]1O[C@H](CO)[C@@H](O)[C@H]1O [β-D-BT]	1.17
CS(=O)(=O)OC1C(CO)OC(n2ccc(N)nc2=O)C1O [β-D-AK]	2.69
CC(=O)O[C@H]1[C@@H]2Oc3nc(=N)ccn3[C@@H]2O[C@@H]1CO [β-D-MD]	1.58
Nc1nc(F)nc2c1ncn2[C@@H]1C=C[C@H](CO)O1 [β-L-FC]	1.00
OC[C@@H]1C=C(F)[C@H](n2cnc3c(Cl)ncnc32)O1 [β-D-FA]	1.92
